Measured values published in US20240300886A1, “ARYLCYCLOHEXYLAMINE DERIVATIVES AND THEIR USE IN THE TREATMENT OF PSYCHIATRIC DISORDERS” (GILGAMESH PHARMACEUTICALS, INC., priority 2021, published 2024).
Where two headings read alike, the source gives them in different places.

Key:
[1] = Metabolic stability in cynomolgus monkey liver microsomes (CLM); format: in vitro ADME, cynomolgus monkeys; conditions: for half-life at 1 μM / microsomal CLint at 1 μM: male, cynomolgus monkey, pooled cynomolgus monkey liver microsomes, pH 7.4, 1 μM compound, 0.50 mg protein/mL, NADPH
Procedure: CLM Stability. Pooled CLM from male cynomolgus monkeys (Corning 452413) were used. Microsomal incubations were carried out in multi-well plates. Liver microsomal incubation medium consisted of PBS (100 mM, pH 7.4), MgCl2 (1 mM), and NADPH (1 mM), with 0.50 mg of liver microsomal protein per mL. Control incubations were performed by replacing the NADPH-cofactor system with PBS. Test compounds (1 μM, final solvent concentration 1.0%) were incubated with microsomes at 37° C. with constant shaking. Six time points over 60 minutes were analyzed, with 60 μL aliquots of the reaction mixture being drawn at each time point. The reaction aliquots were stopped by adding 180 μL of cold (4° C.) acetonitrile containing 200 ng/mL tolbutamide and 200 ng/mL labetalol as internal standards (IS), followed by shaking for 10 minutes, and then protein sedimentation by centrifugation at 4,000 rpm for 20 minutes at 4° C. Supernatant samples (80 μL) were diluted with water (240 μL) and analyzed for parent compound remaining using a fit-for-purpose liquid chromatography-tandem mass spectrometry (LC-MS/MS) method.
Data Analysis. The elimination constant (kel), half-life (t1/2) and intrinsic clearance (Clint) were determined in a plot of […] versus time, using linear regression analysis.

[2] = Oral bioavailability in rats, Method B (plasma and brain PK); format: in vivo, Sprague Dawley rats; conditions: for half-life / Cmax / AUC(0-inf): male, Sprague Dawley; for half-life / Cmax / AUC(0-inf) / AUC0-inf (iv) / AUC0-inf (po) / F: Method B; for AUC(0-inf) / AUC0-inf (iv) / AUC0-inf (po): values represent AUC0-last; for F: 1 mg/kg
Procedure: Animals. Male Sprague Dawley rats were used in these studies. Animals were randomly assigned to treatment groups and were fasted for 4 h before dosing.
Drugs. Test compounds were dissolved in a vehicle consisting of normal saline (for compounds used as the HCl salt) or normal saline slightly acidified with aq. HCl (for freebase compounds). They were then administered intravenously (iv) or orally (po) at a dose of […] (calculated based on freebase), as indicated, and at a volume of 5 mL/kg body weight. Compounds were tested as the racemates or pure enantiomers, as indicated.
Sample Collection and Bioanalysis. Blood samples (approximately 60 μL) were collected under light isoflurane anesthesia (Surgivet®) from the retro orbital plexus at 0.08, 0.25, 0.5, 1, 2, 4, 8, and 24 h (4 animals per time point). Immediately after blood collection, plasma was harvested by centrifugation at 4,000 rpm for 10 min at 4° C. and samples were stored at −70±10° C. until bioanalysis. Following blood collection, animals were immediately sacrificed, the abdominal vena-cava was cut open, and the whole body was perfused from the heart using 10 mL of normal saline, and brain samples were collected from all animals. After isolation, brain samples were rinsed three times in ice-cold normal saline (for 5-10 seconds/rinse using ˜-5-10 mL normal saline in disposable petri dish for each rinse) and dried on blotting paper. Brain samples were homogenized using ice-cold phosphate-buffered saline (pH 7.4). Total homogenate volume was three times the tissue weight. All homogenates were stored at −70±10° C. until bioanalysis. For bioanalysis, 25 μL aliquots of plasma/brain study samples or spiked plasma/brain calibration standards were added to individual pre-labeled micro-centrifuge tubes followed by 100 μL of an internal standard solution (glipizide, 500 ng/mL in acetonitrile) except for blanks, where 100 μL of acetonitrile was added. Samples were vortexed for 5 minutes and then centrifuged for 10 minutes at 4,000 rpm at 4° C. Following centrifugation, 100 μL of each clear supernatant was transferred to a 96 well plate and analyzed with a fit-for-purpose LC-MS/MS method, with authentic samples of each analyte used for calibration and identification.
Data Analysis. Pharmacokinetic parameters were estimated using the non-compartmental analysis tool of Phoenix® WinNonlin software (Ver 8.0).

[3] = molecular target: serotonin transporter (SERT) (Homo sapiens (Human), UniProt P31645); assay: SERT fluorescent substrate uptake inhibition in transfected cells; format: cell-based; conditions: for inhibition at 10 µM: stably transfected cells expressing SERT; for ability to inhibit SERT uptake (in words): transfected cells, 10 μM
Procedure: The ability of disclosed compounds to inhibit uptake of monoamines by the serotonin transporter (SERT) was measured using a fluorescent substrate uptake assay in transfected cells (Table 15). […] Considering that inhibitors of SERT are well known to have antidepressant and anxiolytic effects and are among the most commonly prescribed drugs for mood disorders (e.g. fluoxetine, sertraline, etc.), blockade of SERT by certain compounds of the present disclosure is expected to synergize with their NMDAR inhibition to increase therapeutic activity for treating depression and related disorders. […] Further, the ability to tune the ratio between SERT and NMDAR is useful to obtain the optimal therapeutic profile depending on the intended clinical indication.
Uptake Inhibition. The ability of test compounds to block monoamine uptake by SERT was determined using the Neurotransmitter Transporter Uptake Assay Kit manufactured by Molecular Devices (Cat #R8173). Briefly, stably transfected cells expressing SERT were grown and plated into 384-well plates at a concentration of 20,000 cells per well. Plates were then incubated for 16-20 h at 37° C. and 5% CO2. The medium was then aspirated and replaced with 25 μL of assay buffer (20 mM HEPES in HBSS, containing 0.1% BSA) containing the test compounds at the appropriate concentrations. Plates were then centrifuged at 300 rpm for 15 s and then incubated at 37° C. for 30 minutes. At this time, 25 μL of the proprietary fluorescent dye solution was added, the plates were incubated at 37° C. for 60 minutes, and then fluorescence was quantified on a plate reader (excitation wavelength=440 nm, emission wavelength=520 nm). The proprietary dye solution contains a mixture of 1) a fluorescent dye that mimics the endogenous substrate of SERT and is thereby actively transported to the intracellular compartment in the absence of an inhibitor and 2) a masking dye that inhibits the fluorescence of dye 1 in the extracellular compartment. Therefore, the overall fluorescence of the system increases as the fluorescent dye is transported into the cells.

[4] = rat brain, 1 mg/kg iv, read-out: t1/2 (iv)
[5] = rat brain, 1 mg/kg po, read-out: t1/2 (po)
[6] = rat plasma, 1 mg/kg iv, read-out: t1/2 (iv)
[7] = rat plasma, 1 mg/kg iv, read-out: AUC0-inf (iv) (converted)
[8] = rat plasma, 1 mg/kg po, read-out: t1/2 (po)
[9] = rat plasma, 1 mg/kg po, read-out: AUC0-inf (po) (converted)
[10] = rat brain, calculated based on brain exposure (AUC0-last)

SMILES | half-life at 1 μM [1] [h] | microsomal CLint at 1 μM [1] [µL/min/mg] | half-life [2, 4] [h] | Cmax ([2]; rat brain, 1 mg/kg po) [ng/g] | half-life [2, 5] [h] | half-life [2, 6] [h] | AUC(0-inf) [2, 7] [ng·h/mL] | Cmax ([2]; rat plasma, 1 mg/kg po) [ng/mL] | half-life [2, 8] [h] | AUC(0-inf) [2, 9] [ng·h/mL] | AUC0-inf (iv) ([2]; rat brain, 1 mg/kg iv) [ng·min/g] | AUC0-inf (po) ([2]; rat brain, 1 mg/kg po) [ng·min/g] | F [2, 10] [%] | F ([2]; rat plasma, based on AUC0-last) [%] | inhibition at 10 µM [3] [%] | ability to inhibit SERT uptake (in words) [3] | stability in CLM (in words) [1] | brain exposure after oral administration compared to enantiomer 2S ([2]; rats)
N[C@]1(c2ccc(F)cc2)CCCCC1=O [Compound 1S, (S)-2-amino-2-(4-fluorophenyl)cyclohexan-1-one] | > 2.42 | < 9.6 | 4.09 | 167 | 7.11 | 2.58 | 805 | 234 | 3.88 | 1140 | 126462 | 79272.6 | 62.7 | >100 | 14.9 | – | – | –
N[C@@]1(c2ccc(F)cc2)CCCCC1=O [Compound 1R, (R)-2-amino-2-(4-fluorophenyl)cyclohexan-1-one] | – | – | – | – | – | – | – | – | – | – | – | – | – | – | 10.4 | – | – | –
CN[C@]1(c2ccc(F)cc2)CCCCC1=O [Compound 2S, (S)-2-(4-fluorophenyl)-2-(methylamino)cyclohexan-1-one] | 0.638 | 36.1 | 0.7 | 47.6 | – | 0.7 | 186 | 32.3 | 1.46 | 37.8 | 68000.4 | 3067.2 | 4.5 | 20 | 36.4 | – | – | –
N[C@]1(c2cccc(F)c2)CCCCC1=O [Compound 3S] | 1.4 | 16.6 | – | – | – | – | – | – | – | – | – | – | – | – | -0.21 | inactive | – | –
CN[C@@]1(c2ccc(F)cc2)CCCCC1=O [Compound 2R, (R)-2-(4-fluorophenyl)-2(methylamino)cyclohexan-1-one] | 1.04 | 22.2 | 0.0633 | 42.8 | 0.99 | 2.77 | 163 | 17.7 | 1.58 | 50.3 | 27152.4 | 4915.8 | 18.1 | 31 | 58.8 | substantial inhibitor, activity in the micromolar range | substantially more stable | substantially higher brain exposure
